Patent publication US8431541B2, “Alpha-amylase inhibitors: the montbretins and uses thereof” (The University of British Columbia, priority 2007, dated 2013)

Tested on: control and STZ-diabetic rats
Assay: Acute starch tolerance test
Type: in vivo, rat
Description: Twenty-four animals were obtained at 200-250 g of body weight and randomly divided into control and diabetic groups. Diabetes was induced by a single intravenous tail vein injection of streptozotocin 60 mg/kg in 0.9% normal saline. Control rats received normal saline injections only. Animals were subsequently divided into acarbose untreated and treated. […] Starch was obtained from Fisher Scientific and a 17.5% suspension was made in distilled water. The dose of starch given was […].
The animals were fasted overnight. A basal blood sample was collected (50 μl volume) and then at 30, 60, 90 and 120 minutes post drug administration. Starch and starch+acarbose was administered by oral gavage. Blood was centrifuged at 10,000 g×25 minutes and plasma collected for determination of glucose levels using a Beckman Glucose Analyzer II™. There was no difference in body weight among the groups. There was a significant increase in plasma glucose 30 and 60 minutes following starch administration in the diabetic untreated group only.
The twenty-four animals from Example 6 were used following a wash out period of one week. Animals were divided into montbretin A untreated and treated. The four treatment groups were: control, n=6, control+montbretin A, n=6, diabetic, n=6 and diabetic+montbretin A, n=6. The procedures used in Example 6 were employed. Montbretin A was dissolved in distilled water at a concentration of 10 mg/ml and given at a volume of 1 ml/kg. The dose of montbretin A given was 10 mg/kg. There was no difference in body weight among the groups. There was a significant increase in plasma glucose levels in the diabetic untreated group at 30 and 60 minutes following starch administration.
A study was done to determine the effect of various amounts of montbretin A and montbretin extracts on plasma glucose levels in response to a starch challenge in STZ-diabetic rats. Diabetic animals used in the previous Examples were used following a wash out period of one week. The six experimental groups were: diabetic (D, n=3) diabetic+montbretin A (5 mg/kg), (DT5, n=3), diabetic+montbretin A (1 mg/kg), (DT1, n=3), diabetic+montbretin A (0.5 mg/kg), (DT0.5, n=3), diabetic+Crocosmia corm methanol extract (5 mg/kg), (DM, n=3) and diabetic+Crocosmia corm ethanol extract (5 mg/kg), (DE, n=2).
Montbretin A was dissolved in distilled water at a concentration of 5, 1 or 0.5 mg/ml and given at a volume of 1 ml/kg. The methanol extract contained montbretin A at a concentration of 3.2 mg/ml and ethanol extract at a concentration of 1.6 mg/ml. These extracts were dried and resuspended in distilled water. There was no difference in body weight among the groups. […] Diarrhea occurred in 2 out 3 animals given the methanol extract and in 1 out of 2 animals given the ethanol extract. […]

What does the source list for `CC1O[C@@H](O[C@@H]2CO[C@@H](Oc3c(O)cc(-c4oc5cc(O)cc(O)c5c(=O)c4O[C@@H]4OC(C)[C@H](O)[C@H](O)C4O[C@@H]4OC(COC(=O)/C=C/c5ccc(O)c(O)c5)[C@@H](O)[C@@H](O)C4O[C@@H]4OC(CO)[C@@H](O)[C@@H](O)C4O)cc3O)C(O)[C@@H]2O)C(O)[C@@H](O)[C@H]1O` (stereo partly drawn) [Montbretin A, montbretin A]?
increase in plasma glucose following starch administration (5 mg/kg, acute, STZ-diabetic rats): prevented the increase in plasma glucose; increase in plasma glucose following a starch challenge (10 mg/kg, oral gavage, acute, control and STZ-diabetic rats): effective in preventing the increase in plasma glucose; effect on plasma glucose, area under the curve (lower doses (1 mg/kg, 0.5 mg/kg), STZ-diabetic rats): not particularly significant
